# Molecular target: T1, FLAG-tagged full length PHD2 (Homo sapiens, UniProt Q9GZT9)
# T1 construct: FLAG-tagged full length PHD2; FLAG; made in house; host or cells: baculovirus-infected Sf9 cells
# Assay: HIF-PHD2 time resolved fluorescence inhibition assay (HIF-1α peptide hydroxylation, VHL complex detection)
# Assay type: biochemical
# Details: 0.2 μM 2-oxoglutarate, 0.5 μM HIF-1α peptide, 2 hr at room temperature
# Procedure: To each well of a 96-well plate was added […] of test compound in DMSO and 20 μl of assay buffer (50 mM Tris pH 7.4/0.01% Tween-20/0.1 mg/ml bovine serum albumin/10 μM ferrous sulfate/1 mM sodium ascorbate/20 μg/ml catalase) containing 0.15 μg/ml FLAG-tagged full length PHD2 expressed in and purified from baculovirus-infected Sf9 cells. After a […] preincubation at room temperature, the enzymatic reactions were initiated by the addition of 4 μL of substrates (final concentrations of 0.2 μM 2-oxoglutarate and 0.5 μM HIF-1α peptide biotinyl-DLDLEMLAPYIPMDDDFQL). After 2 hr at room temperature, the reactions were terminated and signals were developed by the addition of a 25 μL quench/detection mix to a final concentration of 1 mM ortho-phenanthroline, 0.1 mM EDTA, 0.5 nM anti-(His)6 LANCE reagent (Perkin-Elmer Life Sciences), 100 nM AF647-labeled streptavidin (Invitrogen), and 2 μg/ml (His)6-VHL complex (S. Tan (2001) Protein Expr. Purif. 21, 224-234). The ratio of time resolved fluorescence signals at 665 and 620 nm was determined, and percent inhibition was calculated relative to an uninhibited control sample run in parallel.
# T1 sequence (Q9GZT9 whole entry): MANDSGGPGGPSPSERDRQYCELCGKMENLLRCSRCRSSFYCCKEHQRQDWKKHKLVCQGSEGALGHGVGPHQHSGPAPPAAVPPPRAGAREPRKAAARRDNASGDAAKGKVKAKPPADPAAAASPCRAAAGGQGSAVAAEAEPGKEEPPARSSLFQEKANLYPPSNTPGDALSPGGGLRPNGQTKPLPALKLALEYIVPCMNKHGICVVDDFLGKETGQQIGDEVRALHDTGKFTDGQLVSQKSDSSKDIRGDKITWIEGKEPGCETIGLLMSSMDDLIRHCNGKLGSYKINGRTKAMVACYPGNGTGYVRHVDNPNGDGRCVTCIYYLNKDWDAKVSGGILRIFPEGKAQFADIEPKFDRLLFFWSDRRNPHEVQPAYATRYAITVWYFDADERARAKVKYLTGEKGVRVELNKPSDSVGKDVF
row,IC50 [nM],SMILES
1,2.1,"O=C(O)CNC(=O)c1c(O)c2cccnc2n(Cc2ccc(C(F)(F)F)cc2)c1=O [Example 1, N-({4-Hydroxy-2-oxo-1-[4-(trifluoromethyl)benzyl]-1,2-dihydro-1,8-naphthyridin-3-yl}carbonyl)glycine]"
2,1.6,"O=C(O)CNC(=O)c1c(O)c2cccnc2n(Cc2ccc(Cl)cc2)c1=O [Example 2, N-{[1-(4-Chlorobenzyl)-4-hydroxy-2-oxo-1,2-dihydro-1,8-naphthyridin-3-yl]carbonyl}glycine]"
3,1.9,"O=C(O)CNC(=O)c1c(O)c2cccnc2n(Cc2ccc(Br)cc2)c1=O [Example 3, N-{[1-(4-Bromobenzyl)-4-hydroxy-2-oxo-1,2-dihydro-1,8-naphthyridin-3-yl]carbonyl}glycine]"
4,1.6,"N#Cc1ccc(Cn2c(=O)c(C(=O)NCC(=O)O)c(O)c3cccnc32)cc1 [Example 4, N-{[1-(4-Cyanobenzyl)-4-hydroxy-2-oxo-1,2-dihydro-1,8-naphthyridin-3-yl]carbonyl}glycine]"
5,1.8,"Cc1ccc(Cn2c(=O)c(C(=O)NCC(=O)O)c(O)c3cccnc32)cc1 [Example 5, N-{[1-(4-Methylbenzyl)-4-hydroxy-2-oxo-1,2-dihydro-1,8-naphthyridin-3-yl]carbonyl}glycine]"
6,1.6,"O=C(O)CNC(=O)c1c(O)c2cccnc2n(Cc2ccc(C(F)(F)F)cc2F)c1=O [Example 6, N-{[1-(2-Fluoro-4-trifluoromethylbenzyl)-4-hydroxy-2-oxo-1,2-dihydro-1,8-naphthyridin-3-yl]carbonyl}glycine]"
7,1.5,"COc1ccc2c(O)c(C(=O)NCC(=O)O)c(=O)n(Cc3ccc(C(F)(F)F)cc3)c2n1 [Example 7, N-({4-Hydroxy-7-methoxy-2-oxo-1-[4-(trifluoromethyl)benzyl]-1,2-dihydro-1,8-naphthyridin-3-yl}carbonyl)glycine]"
8,0.7,"O=C(O)CNC(=O)c1c(O)c2cccnc2n(Cc2nc3ccccc3s2)c1=O [Example 8, N-{[1-(1,3-Benzothiazol-2-ylmethyl)-4-hydroxy-2-oxo-1,2-dihydro-1,8-naphthyridin-3-yl]carbonyl}glycine]"
9,1.3,"O=C(O)CNC(=O)c1c(O)c2cc(I)cnc2n(Cc2ccc(C(F)(F)F)cc2)c1=O [Example 9, N-({4-Hydroxy-6-iodo-2-oxo-1-[4-(trifluoromethyl)benzyl]-1,2-dihydro-1,8-naphthyridin-3-yl}carbonyl)glycine]"
10,1.2,"N#Cc1cnc2c(c1)c(O)c(C(=O)NCC(=O)O)c(=O)n2Cc1ccc(C(F)(F)F)cc1 [Example 10, N-({6-Cyano-4-hydroxy-2-oxo-1-[4-(trifluoromethyl)benzyl]-1,2-dihydro-1,8-naphthyridin-3-yl}carbonyl)glycine]"
11,6,"C[C@H](NC(=O)c1c(O)c2cccnc2n(Cc2ccc(C(F)(F)F)cc2)c1=O)C(=O)O [Example 11, N-({4-Hydroxy-2-oxo-1-[4-(trifluoromethyl)benzyl]-1,2-dihydro-1,8-naphthyridin-3-yl}carbonyl)-L-alanine]"
12,1100,"C[C@@H](NC(=O)c1c(O)c2cccnc2n(Cc2ccc(C(F)(F)F)cc2)c1=O)C(=O)O [Example 12, N-({4-Hydroxy-2-oxo-1-[4-(trifluoromethyl)benzyl]-1,2-dihydro-1,8-naphthyridin-3-yl}carbonyl)-D-alanine]"
13,1.2,"NC(=O)c1ccc(Cn2c(=O)c(C(=O)NCC(=O)O)c(O)c3cccnc32)cc1 [Example 13, N-({1-[4-(Aminocarbonyl)benzyl]-4-hydroxy-2-oxo-1,2-dihydro-1,8-naphthyridin-3-yl}carbonyl)glycine]"
14,160,"O=C(N[C@@H](CO)C(=O)O)c1c(O)c2cccnc2n(Cc2ccc(C(F)(F)F)cc2)c1=O [Example 14, N-({1-[4-(trifluoromethyl)benzyl]-4-hydroxy-2-oxo-1,2-dihydro-1,8-naphthyridin-3-yl}carbonyl)-L-serine]"
15,25,"O=C(O)C[C@H](NC(=O)c1c(O)c2cccnc2n(Cc2ccc(C(F)(F)F)cc2)c1=O)C(=O)O [Example 15, N-({1-[4-(trifluoromethyl)benzyl]-4-hydroxy-2-oxo-1,2-dihydro-1,8-naphthyridin-3-yl}carbonyl)-L-aspartic acid]"
16,160,"CC[C@H](NC(=O)c1c(O)c2cccnc2n(Cc2ccc(C(F)(F)F)cc2)c1=O)C(=O)O [Example 17, (2S)-2-[({4-Hydroxy-2-oxo-1-[4-(trifluoromethyl)benzyl]-1,2-dihydro-1,8-naphthyridin-3-yl}carbonyl)amino]butanoic acid]"

row,IC50 [nM],SMILES
1,21,"C#CCn1c(=O)c(C(=O)NCC(=O)O)c(O)c2cccnc21 [Example 18, N-[(4-Hydroxy-2-oxo-1-prop-2-yn-1-yl-1,2-dihydro-1,8-naphthyridin-3-yl)carbonyl]glycine]"
2,0.4,"O=C(O)CNC(=O)c1c(O)c2cccnc2n(Cc2cc(-c3ccccc3)no2)c1=O [Example 19, N-({4-Hydroxy-2-oxo-1-[(3-phenylisoxazol-5-yl)methyl]-1,2-dihydro-1,8-naphthyridin-3-yl}carbonyl)glycine]"
3,0.9,"O=C(O)CNC(=O)c1c(O)c2cccnc2n(Cc2noc(-c3ccccc3)n2)c1=O [Example 20, N-({4-Hydroxy-2-oxo-1-[(5-phenyl-1,2,4-oxadiazol-3-yl)methyl]-1,2-dihydro-1,8-naphthyridin-3-yl}carbonyl)glycine]"
4,0.8,"O=C(O)CNC(=O)c1c(O)c2cccnc2n(Cc2nc(-c3ccccc3)no2)c1=O [Example 21, N-({4-Hydroxy-2-oxo-1-[(3-phenyl-1,2,4-oxadiazol-5-yl)methyl]-1,2-dihydro-1,8-naphthyridin-3-yl}carbonyl)glycine]"
5,0.8,"O=C(O)CNC(=O)c1c(O)c2cccnc2n(Cc2nc(-c3ccccc3)cs2)c1=O [Example 22, N-({4-Hydroxy-2-oxo-1-[(4-phenyl-1,3-thiazol-2-yl)methyl]-1,2-dihydro-1,8-naphthyridin-3-yl}carbonyl)glycine]"
6,8.5,"CCOC(=O)Cn1c(=O)c(C(=O)NCC(=O)O)c(O)c2cccnc21 [Example 23, N-{[1-(2-Ethoxy-2-oxoethyl)-4-hydroxy-2-oxo-1,2-dihydro-1,8-naphthyridin-3-yl]carbonyl}glycine]"
7,1.1,"O=C(O)CNC(=O)c1c(O)c2cccnc2n(Cc2nc3cc(Cl)ccc3s2)c1=O [Example 24, N-({1-[(5-Chloro-1,3-benzothiazol-2-yl)methyl]-4-hydroxy-2-oxo-1,2-dihydro-1,8-naphthyridin-3-yl}carbonyl)glycine]"
8,2,"CC(C)(C)c1csc(Cn2c(=O)c(C(=O)NCC(=O)O)c(O)c3cccnc32)n1 [Example 25, N-({1-[(4-tert-Butyl-1,3-thiazol-2-yl)methyl]-4-hydroxy-2-oxo-1,2-dihydro-1,8-naphthyridin-3-yl}carbonyl)glycine]"
9,1.3,"Cc1nc(Cn2c(=O)c(C(=O)NCC(=O)O)c(O)c3cccnc32)sc1C [Example 26, N-({1-[(4,5-Dimethyl-1,3-thiazol-2-yl)methyl]-4-hydroxy-2-oxo-1,2-dihydro-1,8-naphthyridin-3-yl}carbonyl)glycine]"
10,2.6,"O=C(O)CNC(=O)c1c(O)c2cccnc2n(Cc2nnc(-c3ccccc3)o2)c1=O [Example 27, N-({4-Hydroxy-2-oxo-1-[(5-phenyl-1,3,4-oxadiazol-2-yl)methyl]-1,2-dihydro-1,8-naphthyridin-3-yl}carbonyl)glycine]"
11,0.85,"O=C(O)CNC(=O)c1c(O)c2cccnc2n(Cc2ccc(C(F)(F)F)nc2)c1=O [Example 28, {[(4-Hydroxy-2-oxo-1-{[6-(trifluoromethyl)pyridin-3-yl]methyl}-1,2-dihydro-1,8 naphthyridin-3-yl)carbonyl}amino}acetic acid]"
12,2.7,"C[C@H](NC(=O)c1c(O)c2cccnc2n(Cc2nc3ccccc3s2)c1=O)C(=O)O [Example 30, (2S)-2-({[1-(1,3-Benzothiazol-2-ylmethyl)-4-hydroxy-2-oxo-1,2-dihydro-1,8-naphthyridin-3-yl]carbonyl}amino)propanoic acid]"
13,5.9,"C[C@H](NC(=O)c1c(O)c2cccnc2n(Cc2nc3cc(Cl)ccc3s2)c1=O)C(=O)O [Example 35, (2S)-2-[({1-[(5-Chloro-1,3-benzothiazol-2-yl)methyl]-4-hydroxy-2-oxo-1,2-dihydro-1,8-naphthyridin-3-yl}carbonyl)amino]propanoic acid]"
14,2.7,"C[C@H](NC(=O)c1c(O)c2cccnc2n(Cc2ccc(C(F)(F)F)nc2)c1=O)C(=O)O [Example 38, (2S)-2-{[(4-Hydroxy-2-oxo-1-{[6-(trifluoromethyl)pyridin-3-yl]methyl}-1,2-dihydro-1,8-naphthyridin-3-yl)carbonyl]amino}propanoic acid]"
15,8.2,"C[C@H](NC(=O)c1c(O)c2cccnc2n(Cc2ccc(C(F)(F)F)cc2F)c1=O)C(=O)O [Example 39, (2S)-2-[({1-[2-Fluoro-4-(trifluoromethyl)benzyl]-4-hydroxy-2-oxo-1,2-dihydro-1,8-naphthyridin-3-yl}carbonyl)amino]propanoic acid]"

row,SMILES,IC50 [nM]
1,"O=C(O)CNC(=O)c1c(O)c2cc(Cl)cnc2n(Cc2ccc(C(F)(F)F)nc2)c1=O [Example 29, {[(6-Chloro-4-hydroxy-2-oxo-1-{[6-(trifluoromethyl)pyridin-3-yl]methyl}-1,2-dihydro-1,8 naphthyridin-3-yl)carbonyl]amino}acetic acid]",0.65
